The assay deals with T1, AKT1 (PKB alpha) (Homo sapiens, UniProt P31749).
T1 construct: purchased Thermo Fisher Scientific (Life Technologies) SelectScreen
Put plainly: SelectScreen Z'LYTE. The assay is classed as biochemical. The essentials:
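NU5455 was profiled across the SelectScreen Broad panel of kinase activity and binding assays. Z'LYTE reactions such as CSF1R ran at apparent Km ATP, while the Adapta CAMK1 assay used ATP listed as 10. Values are given as percent.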

For 1 compound, inhibition results are on record in article PMC6934184, “Selective DNA-PKcs inhibition extends the therapeutic index of localized radiotherapy and chemotherapy” (The Journal of Clinical Investigation, 2019).

As a reminder, the inhibition is the share of the control response that was lost under treatment.

T1 sequence (P31749 whole entry): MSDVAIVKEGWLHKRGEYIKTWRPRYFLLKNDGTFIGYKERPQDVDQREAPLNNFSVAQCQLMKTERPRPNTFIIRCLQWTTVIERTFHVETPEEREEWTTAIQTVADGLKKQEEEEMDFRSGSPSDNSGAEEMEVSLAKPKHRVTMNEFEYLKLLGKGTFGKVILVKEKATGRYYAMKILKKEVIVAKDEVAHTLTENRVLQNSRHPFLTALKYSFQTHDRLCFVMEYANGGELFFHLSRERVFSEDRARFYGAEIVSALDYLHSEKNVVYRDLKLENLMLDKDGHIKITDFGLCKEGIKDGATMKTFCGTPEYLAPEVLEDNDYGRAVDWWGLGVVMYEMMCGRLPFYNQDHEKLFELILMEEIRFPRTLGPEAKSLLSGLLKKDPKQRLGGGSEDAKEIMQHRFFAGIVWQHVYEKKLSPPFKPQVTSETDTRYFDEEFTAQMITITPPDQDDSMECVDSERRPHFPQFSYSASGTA

As to `CN(C(=O)CN1CCOCC1)c1ccc2sc3c(-c4cccc5c(=O)cc(N6CC7CCC(C6)O7)oc45)cccc3c2c1` [NU5455], the inhibition at 1 µM was determined as 0.5%.
